Results published in ChEMBL document CHEMBL1201862, “PubChem BioAssay data set” (2004).
One block for each molecule: values may come before it. The source made the active and inactive calls.

Experiments:
[1] = Luminescent dose response cell-based high throughput screening assay for inhibitors of the Janus kinase 2 mutant JAK2V617F. [Related pubchem assays: 1446 (Primary screen.), 1521 (Confirmation assay.), 1486 (Counter screen.)]; format: functional
[2] = molecular target: T1, Microphthalmia-associated transcription factor (Homo sapiens, UniProt O75030); test: reducers of TRPM1 reporter luminescence, concentration series – cell-based, SK-MEL-5, cherry-picked, set 3, MITF inhibitor project, dose response (AID 493073); format: functional;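 note: SK-MEL-5 melanoma cells with luciferase driven by the MITF target TRPM1 promoter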
T1 sequence (O75030 whole entry): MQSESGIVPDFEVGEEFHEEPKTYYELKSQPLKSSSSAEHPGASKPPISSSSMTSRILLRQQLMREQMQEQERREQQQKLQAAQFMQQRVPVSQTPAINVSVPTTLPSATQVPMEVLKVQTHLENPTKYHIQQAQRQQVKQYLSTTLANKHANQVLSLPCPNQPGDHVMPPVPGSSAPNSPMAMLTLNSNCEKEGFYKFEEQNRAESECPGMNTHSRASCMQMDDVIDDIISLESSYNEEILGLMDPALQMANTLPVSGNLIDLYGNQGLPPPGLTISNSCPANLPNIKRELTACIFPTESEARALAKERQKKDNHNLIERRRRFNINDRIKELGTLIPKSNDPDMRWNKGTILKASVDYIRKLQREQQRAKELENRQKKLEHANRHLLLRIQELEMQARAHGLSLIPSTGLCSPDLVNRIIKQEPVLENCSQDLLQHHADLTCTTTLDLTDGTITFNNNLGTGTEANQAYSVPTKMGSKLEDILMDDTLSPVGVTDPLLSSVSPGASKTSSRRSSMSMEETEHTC

INS1 = test: INS-1E survival protection against cytokine death – cell-based, luminescence, retest, dose response (AID 449756); format: functional; details: Rattus norvegicus;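 note: cell death triggered by IL-1 beta plus TNF-alpha plus IFN-gamma mixture; protective hits raise ATP signal compared with cytokine alone wells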
A-375 = test: proliferation inhibition in MITF-low A375 cells – cell-based, cherry-pick samples, set 2, counter-screen for MITF modulator project, dose response (AID 540335); format: functional; details: Homo sapiens
[3] = molecular target: Peroxisome proliferator-activated receptor gamma/Nuclear receptor coactivator 1 (Homo sapiens, UniProt P37231); test: (§1) TR-FRET dose response biochemical High Throughput Screening assay for agonists of the steroid receptor coactivator 1 (SRC-1) recruitment by the peroxisome proliferator-activated receptor gamma (PPAR gamma): non-selective agonists. [Related pubchem assays (depositor defined):AID1300, AID1808, AID504735, AID631]; format: protein assay
Chain of Peroxisome proliferator-activated receptor gamma/Nuclear receptor coactivator 1 (P37231 whole entry): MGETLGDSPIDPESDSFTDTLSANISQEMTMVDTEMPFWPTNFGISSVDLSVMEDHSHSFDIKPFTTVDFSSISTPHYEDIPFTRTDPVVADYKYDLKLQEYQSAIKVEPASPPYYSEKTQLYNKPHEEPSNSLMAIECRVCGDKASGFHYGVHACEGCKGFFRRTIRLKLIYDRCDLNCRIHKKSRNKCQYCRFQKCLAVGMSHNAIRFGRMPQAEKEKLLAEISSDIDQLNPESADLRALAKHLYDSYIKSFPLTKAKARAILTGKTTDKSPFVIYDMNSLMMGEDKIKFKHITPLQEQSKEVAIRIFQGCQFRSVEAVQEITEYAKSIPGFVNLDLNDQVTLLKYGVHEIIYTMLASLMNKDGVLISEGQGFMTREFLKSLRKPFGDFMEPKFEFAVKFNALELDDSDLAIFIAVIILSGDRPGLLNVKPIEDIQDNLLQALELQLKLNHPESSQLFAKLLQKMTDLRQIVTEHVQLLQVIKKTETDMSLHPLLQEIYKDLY
Chain of Peroxisome proliferator-activated receptor gamma/Nuclear receptor coactivator 1 (Q15788 whole entry, further chain): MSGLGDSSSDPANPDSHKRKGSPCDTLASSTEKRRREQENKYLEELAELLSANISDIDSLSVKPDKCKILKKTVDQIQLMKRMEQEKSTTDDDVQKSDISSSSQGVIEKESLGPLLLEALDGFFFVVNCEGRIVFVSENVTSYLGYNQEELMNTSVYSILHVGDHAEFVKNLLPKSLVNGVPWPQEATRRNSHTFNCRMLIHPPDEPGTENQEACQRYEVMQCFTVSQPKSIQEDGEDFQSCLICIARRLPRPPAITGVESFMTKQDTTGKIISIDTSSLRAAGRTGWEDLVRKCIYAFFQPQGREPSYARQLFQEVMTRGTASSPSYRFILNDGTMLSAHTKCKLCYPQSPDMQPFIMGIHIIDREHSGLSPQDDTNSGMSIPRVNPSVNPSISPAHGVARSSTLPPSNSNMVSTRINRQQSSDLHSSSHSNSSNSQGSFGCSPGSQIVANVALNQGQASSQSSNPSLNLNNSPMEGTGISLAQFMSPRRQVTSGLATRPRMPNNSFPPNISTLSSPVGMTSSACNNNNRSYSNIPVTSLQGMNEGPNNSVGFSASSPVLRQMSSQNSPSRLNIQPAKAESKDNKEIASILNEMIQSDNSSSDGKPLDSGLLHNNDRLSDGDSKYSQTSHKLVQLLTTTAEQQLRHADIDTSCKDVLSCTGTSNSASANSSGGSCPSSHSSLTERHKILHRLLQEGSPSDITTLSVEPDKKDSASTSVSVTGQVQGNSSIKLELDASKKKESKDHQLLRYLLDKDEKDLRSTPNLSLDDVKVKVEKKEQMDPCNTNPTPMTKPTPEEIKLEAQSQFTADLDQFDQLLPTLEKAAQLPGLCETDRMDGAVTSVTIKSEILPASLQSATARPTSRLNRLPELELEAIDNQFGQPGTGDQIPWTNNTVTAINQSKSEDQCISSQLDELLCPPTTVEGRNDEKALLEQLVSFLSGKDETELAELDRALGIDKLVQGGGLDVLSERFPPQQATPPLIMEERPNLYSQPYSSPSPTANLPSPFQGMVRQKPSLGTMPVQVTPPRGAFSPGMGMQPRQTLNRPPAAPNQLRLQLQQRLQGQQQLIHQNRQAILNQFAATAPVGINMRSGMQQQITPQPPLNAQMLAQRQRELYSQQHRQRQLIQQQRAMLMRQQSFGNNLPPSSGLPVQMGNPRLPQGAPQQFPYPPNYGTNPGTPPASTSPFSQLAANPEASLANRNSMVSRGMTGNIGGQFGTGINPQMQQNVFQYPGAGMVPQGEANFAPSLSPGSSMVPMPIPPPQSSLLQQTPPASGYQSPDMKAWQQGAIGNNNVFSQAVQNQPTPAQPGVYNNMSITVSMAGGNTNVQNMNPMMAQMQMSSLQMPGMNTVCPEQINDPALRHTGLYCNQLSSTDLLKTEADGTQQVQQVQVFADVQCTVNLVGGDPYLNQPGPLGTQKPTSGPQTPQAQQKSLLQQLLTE

[4] = molecular target: Peroxisome proliferator-activated receptor gamma/Nuclear receptor coactivator 3 (Homo sapiens, UniProt P37231); test: as §1, with “3 (SRC-3)” for “1 (SRC-1)”, “assays: 1301 (Confirmation screen.), 1048 (Primary screen.)]” for “assays (depositor defined):AID1300, AID1808, AID504735, AID631]”; format: functional
Chain of Peroxisome proliferator-activated receptor gamma/Nuclear receptor coactivator 3 (P37231 whole entry): as the sequence (P37231 whole entry) above
Chain of Peroxisome proliferator-activated receptor gamma/Nuclear receptor coactivator 3 (Q9Y6Q9 whole entry, further chain): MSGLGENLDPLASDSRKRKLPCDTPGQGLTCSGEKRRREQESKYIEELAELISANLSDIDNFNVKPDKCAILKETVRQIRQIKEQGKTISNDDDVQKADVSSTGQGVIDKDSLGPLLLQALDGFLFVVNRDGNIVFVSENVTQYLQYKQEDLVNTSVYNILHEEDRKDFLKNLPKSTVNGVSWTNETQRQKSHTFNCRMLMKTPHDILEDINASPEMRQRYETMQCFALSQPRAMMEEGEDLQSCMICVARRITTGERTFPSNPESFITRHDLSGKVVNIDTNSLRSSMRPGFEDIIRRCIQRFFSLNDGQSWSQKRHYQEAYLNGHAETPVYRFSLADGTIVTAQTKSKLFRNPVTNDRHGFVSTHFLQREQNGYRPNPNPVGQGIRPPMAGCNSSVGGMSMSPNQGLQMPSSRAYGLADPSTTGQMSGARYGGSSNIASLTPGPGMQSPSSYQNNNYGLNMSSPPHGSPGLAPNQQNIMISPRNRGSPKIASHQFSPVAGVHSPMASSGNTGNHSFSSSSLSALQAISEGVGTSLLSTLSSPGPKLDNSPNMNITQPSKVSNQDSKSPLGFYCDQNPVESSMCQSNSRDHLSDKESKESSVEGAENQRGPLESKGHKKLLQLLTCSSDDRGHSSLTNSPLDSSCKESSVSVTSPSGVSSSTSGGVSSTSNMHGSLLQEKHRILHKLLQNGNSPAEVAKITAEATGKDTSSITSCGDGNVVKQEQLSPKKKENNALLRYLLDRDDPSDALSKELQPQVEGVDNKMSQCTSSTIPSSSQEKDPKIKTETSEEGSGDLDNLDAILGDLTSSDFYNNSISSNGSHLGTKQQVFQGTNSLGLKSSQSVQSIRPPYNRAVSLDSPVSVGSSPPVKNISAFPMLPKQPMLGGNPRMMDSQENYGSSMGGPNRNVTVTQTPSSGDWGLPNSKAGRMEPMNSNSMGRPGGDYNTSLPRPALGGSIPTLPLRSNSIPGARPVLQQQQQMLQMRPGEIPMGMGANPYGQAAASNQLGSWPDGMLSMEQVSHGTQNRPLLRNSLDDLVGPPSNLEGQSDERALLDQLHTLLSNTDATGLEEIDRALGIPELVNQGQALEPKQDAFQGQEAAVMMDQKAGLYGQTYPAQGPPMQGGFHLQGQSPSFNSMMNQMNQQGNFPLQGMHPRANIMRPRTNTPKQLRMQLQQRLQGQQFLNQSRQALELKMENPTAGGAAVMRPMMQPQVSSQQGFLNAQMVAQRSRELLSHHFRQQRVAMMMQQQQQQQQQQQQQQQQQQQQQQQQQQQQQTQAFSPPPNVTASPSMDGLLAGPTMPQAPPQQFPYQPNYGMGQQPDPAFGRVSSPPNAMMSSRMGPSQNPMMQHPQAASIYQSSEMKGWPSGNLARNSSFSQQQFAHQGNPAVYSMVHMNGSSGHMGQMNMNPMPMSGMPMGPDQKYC

[5] = molecular target: Peroxisome proliferator-activated receptor gamma/Nuclear receptor coactivator 2 (Homo sapiens, UniProt P37231); test: TR-FRET dose response biochemical High Throughput Screening assay for agonists of the steroid receptor coactivator 2 (SRC-2) recruitment by the peroxisome proliferator-activated receptor gamma (PPAR gamma): non-selective agonists. [Related pubchem assays: 1297, 1032 ]; format: functional
[6] = molecular target: T2, Apoptotic protease-activating factor 1 (Homo sapiens, UniProt O14727); format: functional
T2 sequence (O14727 whole entry): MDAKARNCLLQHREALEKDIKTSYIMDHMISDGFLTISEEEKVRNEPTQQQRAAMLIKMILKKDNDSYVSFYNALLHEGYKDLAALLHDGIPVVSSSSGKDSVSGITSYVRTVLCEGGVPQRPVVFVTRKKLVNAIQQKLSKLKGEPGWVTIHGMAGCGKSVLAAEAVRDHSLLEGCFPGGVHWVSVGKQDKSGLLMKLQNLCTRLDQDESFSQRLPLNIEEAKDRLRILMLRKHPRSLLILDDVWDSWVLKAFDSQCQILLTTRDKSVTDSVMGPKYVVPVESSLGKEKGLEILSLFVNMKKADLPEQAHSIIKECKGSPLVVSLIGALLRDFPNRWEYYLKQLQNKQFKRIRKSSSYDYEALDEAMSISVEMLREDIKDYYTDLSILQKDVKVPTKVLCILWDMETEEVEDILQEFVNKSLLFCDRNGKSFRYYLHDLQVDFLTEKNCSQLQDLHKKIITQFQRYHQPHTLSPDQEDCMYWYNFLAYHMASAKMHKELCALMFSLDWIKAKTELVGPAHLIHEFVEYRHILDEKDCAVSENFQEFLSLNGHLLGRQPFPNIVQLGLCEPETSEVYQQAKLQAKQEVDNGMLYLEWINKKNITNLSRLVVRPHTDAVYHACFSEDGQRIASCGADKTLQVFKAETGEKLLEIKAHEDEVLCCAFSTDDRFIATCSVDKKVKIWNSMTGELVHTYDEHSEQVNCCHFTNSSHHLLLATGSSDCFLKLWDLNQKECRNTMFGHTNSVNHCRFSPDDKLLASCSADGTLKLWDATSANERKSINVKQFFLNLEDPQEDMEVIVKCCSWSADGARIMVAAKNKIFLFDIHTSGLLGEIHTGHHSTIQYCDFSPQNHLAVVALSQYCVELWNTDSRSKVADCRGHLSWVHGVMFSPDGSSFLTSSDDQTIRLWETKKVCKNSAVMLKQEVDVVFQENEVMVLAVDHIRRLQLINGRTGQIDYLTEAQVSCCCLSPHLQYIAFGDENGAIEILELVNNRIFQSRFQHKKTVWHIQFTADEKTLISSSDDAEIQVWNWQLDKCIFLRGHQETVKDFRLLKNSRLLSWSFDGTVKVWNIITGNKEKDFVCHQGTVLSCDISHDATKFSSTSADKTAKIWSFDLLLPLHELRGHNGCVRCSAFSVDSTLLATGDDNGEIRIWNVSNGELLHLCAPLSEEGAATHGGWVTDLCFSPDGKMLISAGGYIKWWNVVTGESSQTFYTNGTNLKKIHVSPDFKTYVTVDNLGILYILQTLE

[7] = reduction of Shn3 3'UTR-driven luciferase in osteoblasts – cell-based, Clone20 osteoblasts, firefly luciferase, cherry-picked, dose response (AID 624132); format: functional;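 note: firefly luciferase luminescence from reporter carrying the Shn3 3'UTR in osteoblasts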
[8] = non-specific 3'UTR reporter inhibition in Clone20-Shn3RL – cell-based, Renilla luciferase, cherry-picked, counter-screen for Shn3 inhibitor project, dose response (AID 624133); format: functional
[9] = molecular target: 26S proteasome non-ATPase regulatory subunit 14 (Homo sapiens, UniProt O00487); test: inhibition of proteasome subunit RPN11 – biochemical, fluorescence polarization, uHTS hits, confirmation (AID 602368); format: functional
[10] = molecular target: 72 kDa type IV collagenase (Homo sapiens, UniProt P08253); test: Dose Response validation of uHTS RPN11 inhibitor hits using a MMP-2 Fluorescence assay.; format: functional
Chain of 72 kDa type IV collagenase (P08253 whole entry): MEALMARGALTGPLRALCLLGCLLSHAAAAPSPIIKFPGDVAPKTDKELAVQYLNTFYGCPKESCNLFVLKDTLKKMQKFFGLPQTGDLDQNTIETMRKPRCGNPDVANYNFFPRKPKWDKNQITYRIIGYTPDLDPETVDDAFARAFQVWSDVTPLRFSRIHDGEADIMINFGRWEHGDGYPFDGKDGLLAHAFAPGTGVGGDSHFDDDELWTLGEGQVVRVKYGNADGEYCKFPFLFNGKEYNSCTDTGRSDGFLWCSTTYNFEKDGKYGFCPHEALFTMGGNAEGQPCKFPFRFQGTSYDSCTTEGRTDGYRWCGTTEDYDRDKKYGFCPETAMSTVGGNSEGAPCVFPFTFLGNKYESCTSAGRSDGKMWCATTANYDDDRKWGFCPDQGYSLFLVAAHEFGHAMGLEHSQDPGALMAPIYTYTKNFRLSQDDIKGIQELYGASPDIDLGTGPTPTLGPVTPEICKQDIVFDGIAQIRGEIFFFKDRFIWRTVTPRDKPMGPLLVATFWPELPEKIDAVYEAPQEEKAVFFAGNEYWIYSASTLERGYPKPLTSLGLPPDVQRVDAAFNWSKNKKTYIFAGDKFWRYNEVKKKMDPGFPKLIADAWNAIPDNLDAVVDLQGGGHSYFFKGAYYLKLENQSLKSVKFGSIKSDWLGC

Prothrombin = Prothrombin (Bos taurus, UniProt P00735); test: thrombin protease inhibitors – biochemical, fluorescence polarization, uHTS hits, dose response (AID 602369); format: functional
Cytochrome P450 3A4 = Cytochrome P450 3A4 (Homo sapiens, UniProt P08684);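 note: CYP3A4 tested as one member of a cytochrome P450 panel screen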
Chain of Cytochrome P450 3A4 (P08684 whole entry): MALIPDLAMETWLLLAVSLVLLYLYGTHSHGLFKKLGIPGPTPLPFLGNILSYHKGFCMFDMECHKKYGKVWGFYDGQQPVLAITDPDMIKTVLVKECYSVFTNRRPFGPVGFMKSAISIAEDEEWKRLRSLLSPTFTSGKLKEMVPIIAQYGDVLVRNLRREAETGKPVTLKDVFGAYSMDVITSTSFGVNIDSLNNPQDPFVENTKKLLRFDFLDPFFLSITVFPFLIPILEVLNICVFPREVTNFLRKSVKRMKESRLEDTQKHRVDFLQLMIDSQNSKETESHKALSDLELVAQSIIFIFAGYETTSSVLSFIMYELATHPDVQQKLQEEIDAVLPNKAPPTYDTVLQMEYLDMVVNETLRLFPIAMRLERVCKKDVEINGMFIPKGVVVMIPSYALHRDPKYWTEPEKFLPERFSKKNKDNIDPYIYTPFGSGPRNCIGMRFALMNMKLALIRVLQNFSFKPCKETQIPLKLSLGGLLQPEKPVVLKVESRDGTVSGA

[11] = molecular target: Voltage-dependent T-type calcium channel subunit alpha-1H (Homo sapiens, UniProt O95180); format: functional;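 note: channel activity triggered by adding a high calcium stimulation buffer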
Escherichia coli [12] = test: microbe, parasite or virus in culture
Escherichia coli [13] = test: microbe, parasite or virus in culture; remark: listed apart in the source
HEK293 [14] = test: inhibition of NOD1-driven NF-kB reporter – cell-based, luminescence, uHTS, primary screen (AID 1578); format: functional; details: Homo sapiens
HEK293 [15] = test: cells; format: functional, cell-based; details: Homo sapiens
HEK293 [16] = test: cells; format: functional, cell-based; details: Homo sapiens; remark: listed apart in the source
[17] = molecular target: Nucleotide-binding oligomerization domain-containing protein 2 (Homo sapiens, UniProt Q9HC29); test: inhibition of NOD2-driven NF-kB reporter – cell-based, luminescence, uHTS, HEK293 (AID 1566); format: functional
HEK293 [18] = test: NOD2 signaling inhibitors in MDP-stimulated cells, cell-based, uHTS, luminescence (AID 2001); format: functional; details: Homo sapiens
HEK293 [19] = test: cells; format: functional, cell-based; details: Homo sapiens; remark: listed apart in the source
[20] = molecular target: Beta-2 adrenergic receptor (Homo sapiens, UniProt P07550); test: ADRB2 activation measured by internalization – cell-based, FAP fluorogen, flow cytometry, cherry pick 1, dose response (AID 588763); format: functional

Structure (SMILES): CCCCn1c(=N)n(CC(=O)c2ccc(Br)s2)c2ccccc21
- IC50 [1]: 1.42 µM (active)
- AC50 [2]: 7.45 µM (active)
- AC50 (INS1): 7.71 µM (active)
- AC50 (A-375): 30.3 µM (active)

Structure (SMILES): CS(=O)(=O)c1nc(-c2ccc(Br)cc2)cc(-c2ccccc2)c1C#N
- EC50 [3]: 7.5 µM (active)
- EC50 [4]: > 79.4 µM (not active)
- EC50 [5]: 8.09 µM (active)
- IC50 [6]: 2.07 µM (active)
- AC50 [7]: 4.72 µM (active)
- AC50 [8]: 6.77 µM (active)

- IC50 [9]: 21.1 µM (active)
- IC50 [10]: > 100 µM (inactive)
- IC50 (Prothrombin): 28.1 µM (active)
Structure (SMILES): CCOC(=O)CSc1nc2ccccc2n1C(=O)OCC

- AC50 (Cytochrome P450 3A4): inconclusive
Structure (SMILES): CCCCOC(=S)NC(=O)c1sc2ccccc2c1Cl

Structure (SMILES): CC1CCN(S(=O)(=O)c2cccc(C(=O)NCc3cccs3)c2)CC1
- EC50 [11]: 2.96 µM (active)
- AC50 (Escherichia coli [12]): 40.9 µM (active)
- AC50 (Escherichia coli [13]): 106 µM (active)

- AC50 (Cytochrome P450 3A4): inconclusive
Structure (SMILES): OC[C@@H]1O[C@@H](n2cnc3cncnc32)[C@@H](O)[C@H]1O

Structure (SMILES): O=S(=O)(Nc1cccc(-c2cn3cccnc3n2)c1)c1ccc(-c2ccccc2)cc1
- EC50 (HEK293 [14]): 8.6 µM (active)
- IC50 (HEK293 [15]): 6.52 µM (active)
- IC50 (HEK293 [16]): 14.5 µM (active)
- EC50 [17]: 10.3 µM (active)
- IC50 (HEK293 [18]): 6.98 µM (active)
- IC50 (HEK293 [19]): > 20 µM (inactive)
- EC50 [20]: 4.33 µM (active)
